Laboratory results taken from patent US11357873B2, “Chiral cyclen compounds and their uses” (THE HONG KONG POLYTECHNIC UNIVERSITY, priority 2016, dated 2022).
Read-outs that look alike come from different tables or passages of the source.

How the values were obtained:
[1] = amine bond, 12-membered ring
[2] = Stability of isomers on heating and storage by 1H NMR; type: physicochemical; conditions: solution of [EuL2A]− and [EuL2B]− at 1:0.25, 90° C. for 3 days
Description: (§1) In aqueous solution, the ratio of TSA/SA isomers of Eu(III) and Yb(III) complexes in DOTA-like systems can be easily determined by ^1H NMR as two well-defined sets of six resonances are observed for the diastereotopic protons in CH2CO and NCH2CH2N.^13 Although the Gd(III) complexes cannot be analyzed by NMR, their ratio of isomers are expected to be similar to those of the Eu(III) and Yb(III) complexes because the ionic radius of Gd(III) is similar to the ionic radius of Eu(III) and Yb(III).
(§2) The conformational properties of the lanthanide complexes were investigated by both HPLC and NMR spectroscopy. The ^1H NMR spectra of the four europium chiral DOTA-based complexes are compared in FIG. 3. […] In the cases of [EuL3]^− and [EuL4]^−, the twisted antiprismatic isomers were more dominant, with the ratio of 6.52 for [EuL3]^− and 13.50 for [EuL4]^− observed.
The stability of the complexes toward racemization over time was also monitored by ^1H NMR (FIG. 20). […] Nevertheless, the original set of peaks existed predominately when the pD was adjusted from 6.0 to 7.5 and further heated for 12 h at 90° C. It can be observed that while the purity of the ligands may not be highly satisfactory, pure complexes could be obtained by HPLC separation after complexation. This phenomenon indicates the purification of DOTA-based ligands should be handled with care.

[3] = Relaxivity (r1, r2) measurement of Gd(III) complexes in water, BSA and human plasma; type: physicochemical; set-up: r1 Human Plasma (1.5 T): unit not given beside the values; conditions: 1.5 T, 37° C.
Description: This is very important because the huge difference in the inner-sphere coordinated water exchange rate between the two isomers is a key factor for applications, for example, as MRI contrast agents. To show their potential value, the two diastereomers of [GdL2]^− ([GdL2A]^− and [GdL2B]^−) were separated and their relaxivities were measured. The relaxivities of [GdL1]^−, [GdL2]^−, [GdL2A]^−, [GdL2B]^− and [GdDOTA]^− in water at different magnetic strengths (1.5 T and 11.7 T) were compared, with or without the presence of BSA and human plasma (1.5 T) (Table 1). It is clearly seen that the complexes of [GdL1]^−, [GdL2A]^− and [GdL2B]^− have relaxivity properties similar to that of the [GdDOTA]^− complex.

[4] = TSA/SA isomer ratio of lanthanide complexes by 1H NMR; type: physicochemical; conditions: 25° C., 400 MHz, pD 7.0, aqueous solution
Description: as §1, §2
The ratio of TSA/SA isomers for [YbL1]^− (0.28) and [YbL2]^− (0.93) was relatively lower than that of the europium analogues. The ratio change from [YbL2]^− to [YbL3]^− was also not as apparent.

## CC(C)(C)OC(=O)NCCCC[C@H]1CN(Cc2ccccc2)[C@@H](CCCCNC(=O)OC(C)(C)C)CN(Cc2ccccc2)[C@@H](CCCCNC(=O)OC(C)(C)C)CN(Cc2ccccc2)[C@@H](CCCCNC(=O)OC(C)(C)C)CN1Cc1ccccc1
[1]; from CC(C)(C)OC(=O)NCCCCC1C[N@@]1Cc1ccccc1, TsOH.H2O, MeCN, 82.1 mM, 25.0 °C
  ring closure, isolated yield: 24.5%

## CC(C)C[C@H]1CN(Cc2ccccc2)[C@@H](CC(C)C)CN(Cc2ccccc2)[C@@H](CC(C)C)CN(Cc2ccccc2)[C@@H](CC(C)C)CN1Cc1ccccc1
[1]
  ring closure, isolated yield: 28.3%

## CC[C@H]1CN(Cc2ccccc2)[C@@H](CC)CN(Cc2ccccc2)[C@@H](CC)CN(Cc2ccccc2)[C@@H](CC)CN1Cc1ccccc1
[1]
  ring closure, isolated yield: 27.5%

## O=[N+]([O-])c1ccc(C[C@H]2CN(Cc3ccccc3)[C@@H](Cc3ccc([N+](=O)[O-])cc3)CN(Cc3ccccc3)[C@@H](Cc3ccc([N+](=O)[O-])cc3)CN(Cc3ccccc3)[C@@H](Cc3ccc([N+](=O)[O-])cc3)CN2Cc2ccccc2)cc1
[1]; from O=[N+]([O-])c1ccc(CC2C[N@@]2Cc2ccccc2)cc1, TsOH.H2O, MeCN, 84.7 mM, 25.0 °C
  ring closure, isolated yield: 20.6%

## c1ccc(C[C@H]2CN(Cc3ccccc3)[C@@H](Cc3ccccc3)CN(Cc3ccccc3)[C@@H](Cc3ccccc3)CN(Cc3ccccc3)[C@@H](Cc3ccccc3)CN2Cc2ccccc2)cc1
[1]
  ring closure, isolated yield: 25%

## CC[C@H]1CN(CC(=O)[O-])[C@@H](CC)CN(CC(=O)[O-])[C@@H](CC)CN(CC(=O)[O-])[C@@H](CC)CN1CC(=O)[O-].[Eu+3] (single isomer, unassigned) [[EuL2A]^−]
[2]
  isomer ratio after heating (lack of racemization): remained at the same ratio

## CC[C@H]1CN(CC(=O)[O-])[C@@H](CC)CN(CC(=O)[O-])[C@@H](CC)CN(CC(=O)[O-])[C@@H](CC)CN1CC(=O)[O-].[Eu+3] (single isomer, unassigned) [[EuL2B]^−]
[2]
  isomer ratio after heating (lack of racemization): remained at the same ratio

## CC[C@H]1CN(CC(=O)[O-])[C@@H](CC)CN(CC(=O)[O-])[C@@H](CC)CN(CC(=O)[O-])[C@@H](CC)CN1CC(=O)[O-].[Gd+3] (single isomer, unassigned) [[GdL2B]^−]
[3]
  r1 4.5 w/v BSA (1.5 T): 3.6
  r1 Human Plasma (1.5 T): 3.5
  r1 Water (1.5 T): 3.0

## C[C@H]1CN(CC(=O)[O-])[C@@H](C)CN(CC(=O)[O-])[C@@H](C)CN(CC(=O)[O-])[C@@H](C)CN1CC(=O)[O-].[Eu+3] [[EuL1]^−]
[4]
  isomer ratio of TSA/SA: 0.75

## CC[C@H]1CN(CC(=O)[O-])[C@@H](CC)CN(CC(=O)[O-])[C@@H](CC)CN(CC(=O)[O-])[C@@H](CC)CN1CC(=O)[O-].[Eu+3] [[EuL2]^−]
[4]
  isomer ratio of TSA/SA: 1.27

## CC(C)C[C@H]1CN(CC(=O)[O-])[C@@H](CC(C)C)CN(CC(=O)[O-])[C@@H](CC(C)C)CN(CC(=O)[O-])[C@@H](CC(C)C)CN1CC(=O)[O-].[Eu+3] [[EuL3]^−]
[4]
  isomer ratio of TSA/SA: 6.52

## O=C([O-])CN1CC(Cc2ccccc2)N(CC(=O)[O-])CC(Cc2ccccc2)N(CC(=O)[O-])CC(Cc2ccccc2)N(CC(=O)[O-])CC1Cc1ccccc1.[Eu+3] (centres unmarked) [[EuL4]^−]
[4]
  isomer ratio of TSA/SA: 13.50

## O=C([O-])CN1CCN(CC(=O)[O-])CCN(CC(=O)[O-])CCN(CC(=O)[O-])CC1.[Gd+3] [[GdDOTA]^−, reference compound]
[3]
  r1 4.5 w/v BSA (1.5 T): 4.1
  r1 Human Plasma (1.5 T): 4.0
  r1 Water (1.5 T): 3.2

## C[C@H]1CN(CC(=O)[O-])[C@@H](C)CN(CC(=O)[O-])[C@@H](C)CN(CC(=O)[O-])[C@@H](C)CN1CC(=O)[O-].[Yb+3] [[YbL1]^−]
[4]
  isomer ratio of TSA/SA: 0.28

## CC[C@H]1CN(CC(=O)[O-])[C@@H](CC)CN(CC(=O)[O-])[C@@H](CC)CN(CC(=O)[O-])[C@@H](CC)CN1CC(=O)[O-].[Yb+3] [[YbL2]^−]
[4]
  isomer ratio of TSA/SA: 0.93

## O=C([O-])CN1CC(Cc2ccccc2)N(CC(=O)[O-])CC(Cc2ccccc2)N(CC(=O)[O-])CC(Cc2ccccc2)N(CC(=O)[O-])CC1Cc1ccccc1.[Yb+3] (centres unmarked) [[YbL4]^−]
[4]
  isomer ratio of TSA/SA: essentially one TSA isomer
